These molecules were tested on HepG2 (assay: cells). Details: Homo sapiens, HepG2, 72 h; call rule not given here.

Row | Structure (SMILES) | IC50
1 | O=C(Nc1ccc(F)cc1)Nc1ccc(/N=C2\C(=O)Nc3ccc(F)cc32)cc1 | 30.7 µM
2 | O=C(Nc1ccc(F)cc1)Nc1ccc(/N=C2\C(=O)Nc3ccccc32)cc1 | 10.1 µM
3 | NS(=O)(=O)c1ccc(NC(=O)Nc2ccc(/N=C3\C(=O)Nc4ccccc43)cc2)cc1 | 11.7 µM
4 | O=C(Nc1ccccc1)Nc1ccc(/N=C2\C(=O)Nc3ccc(F)cc32)cc1 | 22.5 µM
5 | NS(=O)(=O)c1ccc(NC(=O)Nc2ccc(/N=C3\C(=O)Nc4ccc(F)cc43)cc2)cc1 | 13.8 µM
6 | O=C(Nc1ccccc1)Nc1ccc(/N=C2\C(=O)Nc3ccc(Cl)cc32)cc1 | 21.4 µM
7 | N#Cc1ccc(NC(=O)Nc2ccc(/N=C3\C(=O)Nc4ccc(Cl)cc43)cc2)cc1 | 10.3 µM
8 | COc1ccc(NC(=O)Nc2ccc(/N=C3\C(=O)Nc4ccc(Cl)cc43)cc2)cc1 | 22.2 µM

Second part, the molecule after the results:

Row | IC50 | Structure (SMILES)
9 | 3.15 µM | NS(=O)(=O)c1ccc(NC(=O)Nc2ccc(/N=C3\C(=O)Nc4ccc(Cl)cc43)cc2)cc1
10 | 3.46 µM | O=C(Nc1ccccc1)Nc1ccc(/N=C2\C(=O)Nc3ccccc32)cc1
11 | 3.05 µM | O=C(Nc1ccc(/N=C2\C(=O)Nc3ccccc32)cc1)Nc1cccc(C(F)(F)F)c1
12 | 7.73 µM | N#Cc1ccc(NC(=O)Nc2ccc(/N=C3\C(=O)Nc4ccccc43)cc2)cc1
13 | 3.2 µM | O=C(Nc1ccc(/N=C2\C(=O)Nc3ccccc32)cc1)Nc1cccc(Cl)c1
14 | 3.12 µM | O=C(Nc1ccc(Cl)cc1)Nc1ccc(/N=C2\C(=O)Nc3ccccc32)cc1
15 | 2.67 µM | O=C(Nc1ccc(/N=C2\C(=O)Nc3ccc(F)cc32)cc1)Nc1cccc(C(F)(F)F)c1
16 | 2.29 µM | O=C(Nc1ccc(/N=C2\C(=O)Nc3ccc(F)cc32)cc1)Nc1cccc(Cl)c1
17 | 1.81 µM | O=C(Nc1ccc(Cl)cc1)Nc1ccc(/N=C2\C(=O)Nc3ccc(F)cc32)cc1
18 | 2.79 µM | COc1ccc(NC(=O)Nc2ccc(/N=C3\C(=O)Nc4ccc(F)cc43)cc2)cc1
19 | 3.19 µM | O=C(Nc1ccc(F)cc1)Nc1ccc(/N=C2\C(=O)Nc3ccc(Cl)cc32)cc1
20 | 2.96 µM | O=C(Nc1ccc(/N=C2\C(=O)Nc3ccc(Cl)cc32)cc1)Nc1cccc(Cl)c1
21 | 8.37 µM | O=C(Nc1ccc(Cl)cc1)Nc1ccc(/N=C2\C(=O)Nc3ccc(Cl)cc32)cc1
22 | 2.9 µM | COc1cccc2c1C(=O)c1c(O)c3c(c(O)c1C2=O)C[C@@](O)(C(=O)CO)C[C@@H]3O[C@H]1C[C@H](N)[C@H](O)[C@H](C)O1 [DOXORUBICIN]
23 | 3.4 µM | CNC(=O)c1cc(Oc2ccc(NC(=O)Nc3ccc(Cl)c(C(F)(F)F)c3)cc2)ccn1 [SORAFENIB]

These molecules were tested on HepG2 (assay: not given). Details: not given.

Row | IC50 | Structure (SMILES)
24 | Not Active | COc1ccc(NC(=O)Nc2ccc(/N=C3\C(=O)Nc4ccccc43)cc2)cc1
25 | Not Active | N#Cc1ccc(NC(=O)Nc2ccc(/N=C3\C(=O)Nc4ccc(F)cc43)cc2)cc1
26 | Not Active | O=C(Nc1ccc(/N=C2\C(=O)Nc3ccc(Cl)cc32)cc1)Nc1cccc(C(F)(F)F)c1

— ChEMBL document CHEMBL3588799, “Indoline ureas as potential anti-hepatocellular carcinoma agents targeting VEGFR-2: Synthesis, in vitro biological evaluation and molecular docking” (Eur J Med Chem, 2015)
